The nature of data set [1]: Apomorphine plasma levels after buccal inserts. It counts as in vivo, human. To be noted: one subject, insert containing 20 mg. The protocol:
1.1 mm thick inserts containing 5, 10 and 20 mg of apomorphine were tested for drug release in six subjects. The levels of drug observed in plasma was 0.2 to 0.8 ng/ml for five of the subjects and reached 5 ng/ml for one subject after administering an insert containing 20 mg of apomorphine.

Data set [2] is described as follows: Apomorphine in-vivo release, 0.6 mm inserts. Also on record: species or system human. To be noted: individual subjects 1-8. The protocol:
Inserts were prepared of thickness 0.6 mm and the release profile in-vitro compared with those of the 1.1 mm thick inserts.
A study was carried out in eight subjects. These included two subjects from the previous study and six new subjects.

The test system of the next data set is micro-organisms. Nature of the data set: Oral dissolution model, microbiological assay of eluted fractions. It counts as cell-based. To be noted: cells 1-3. How it is done: (§1) Six cells were sterilised by autoclaving and then connected to a Duran bottle of sterile water. The flow of water into the cell was controlled by a peristaltic pump (Watson Marlow, Falmouth, UK) to a rate of 0.5 ml/minute. Two different dosage forms (5.8 and 10.5 mg tobramycin) as 9.2 mm discs of thickness 1.7 mm and 130 mg weight were tested by placing directly under the inflow tube and media allowed to flow slowly across them. The dissolution cells were kept at an angle of about 10 degrees to the horizontal to allow flow away from the test units and towards the outflow tube where it was either run to waste or sampled for test. Samples of 2 ml were collected at various timepoints up to 3 hours and divided for chemical (HPLC) and microbiological assay. Tobramycin chemical analysis was carried out using a Dionex HPLC method. The microbiological assay was carried out by double diluting the eluted fractions with broth. These were then spiked with a known number of micro-organisms and incubated. The last tube without growth was then noted. By carrying this out in parallel against a series of prepared standards the inhibitory concentration could be derived.

The next data set has as its system S.Aureus. The data set is described as follows: MIC microbiological assay. It counts as cell-based. To be noted: single drug. An excerpt: (§2) A microbiological assay was developed to examine the efficacy of the colistin sulphate and tobramycin when loaded and released from the polymer at the same time. organisms were selected which were sensitive to only one of the antibiotics.

The next data set relates to A.Xylosoxidans. The data set is described as follows: MIC microbiological assay. Format: cell-based. To be noted: single drug.
Description: as §2

The nature of data set [3]: Oral dissolution model, chemical (HPLC) assay of tobramycin. The note with it: for Chemical Dissolution (concentration in eluate): cells 1-3. It counts as physicochemical. The protocol:
as §1

A short description of data set [4]: Microbiological testing in-vitro, each drug alone. It counts as cell-based. To be noted: examined alone.
Description: as §2

Data set [5] in a line: In-vivo release of colistin sulphate and tobramycin from buccal inserts. The note with it: four subjects.
Description: The release of the two drugs was examined in four healthy subjects. The insert was placed against the buccal mucosa in the upper gingival tissue. Eating and smoking was not permitted during the study, drinking of tea, coffee or soft drinks was allowed.
Data set [6] in a line: Lysozyme in-vitro release from dried slices (BCA assay). Format: physicochemical. To be noted: five dried slices in 30 ml demineralised water, after 24 hours. The protocol: To determine the release profile of lysozyme from dried slices, five slices (0.86 g) were placed in a bottle and 30 ml of demineralised water added. Samples were taken regularly and analysed for protein using the BCA assay. A total of 22.9 mg (88.4%) was released after 24 hours.

The results in this text go back to patent US6488953B2, “Oral transmucosal delivery” (Controlled Therapeutics (Scotland) Ltd., priority 1998, dated 2002).

Where “and” joins values, the source holds several entries; their conditions need not be identical. Identical values can stand only once.

Regarding `CN1CCc2cccc3c2[C@H]1Cc1ccc(O)c(O)c1-3` [Apomorphine], in data set [1], the “levels of drug observed in plasma” value is 5 ng/mL. In addition, the “% RELEASE” value is 6.4% and 42.8% and 30.4% and 10.9% and 0.48% and 25.1% and 26.0% and 3.4% in data set [2] (10 mg); 2.64% and 15.2% and 26.3% and 21.5% and 4.1% and 7.5% and 49.2% and 19.4% in data set [2] (18 mg); 0.0% and 1.1% and 24.8% and 9.9% and 2.7% and 6.2% and 17.7% and 1.3% in data set [2] (27 mg (am.)); 0.0% and 6.2% and 32.6% and 23.6% and 4.4% and 1.3% and 29.6% and 3.0% in data set [2] (27 mg (pm.)).

Consider `NC[C@H]1O[C@H](O[C@H]2[C@H](O)[C@@H](O[C@H]3O[C@H](CO)[C@@H](O)[C@H](N)[C@H]3O)[C@H](N)C[C@@H]2N)[C@H](N)C[C@@H]1O` [Tobramycin], for which the “Microbiological Measure of Activity (derived concentration)” value with micro-organisms (5 mg Dose, 0.25 hrs) was 32 mcg/ml and 36 mcg/ml; in the data set with micro-organisms (5 mg Dose, 2 hrs) it was 16 mcg/ml and 18 mcg/ml; with micro-organisms (5 mg Dose, 3 hrs), 16 mcg/ml and 18 mcg/ml; with micro-organisms (10 mg Dose, 0.25 hrs), 64 mcg/ml; in the data set with micro-organisms (10 mg Dose, 1 hrs), 64 mcg/ml and 32 mcg/ml; in the data set on micro-organisms (10 mg Dose, 2 hrs) it was 32 mcg/ml and 16 mcg/ml. In the data set with micro-organisms (10 mg Dose, 3 hrs), the “Microbiological Measure of Activity (derived concentration)” value was 32 mcg/ml and 16 mcg/ml. In addition, the results for the MIC with S.Aureus and in the data set with A.Xylosoxidans were 4 μ μgml^−1 and more than 256 μ μgml^−1, respectively. In addition, the “Chemical Dissolution (concentration in eluate)” value in data set [3] (5 mg Dose, 0.25 hrs) is 35.5 µg/mL and 26.7 µg/mL and 33.4 µg/mL; in [3] (5 mg Dose, 1 hrs), 23.7 µg/mL and 17.7 µg/mL and 24.0 µg/mL; in [3] (5 mg Dose, 2 hrs) it was 14.0 µg/mL and 15.8 µg/mL and 18.6 µg/mL; in data set [3] (5 mg Dose, 3 hrs), 14.0 µg/mL and 12.0 µg/mL and 15.4 µg/mL; in [3] (10 mg Dose, 0.25 hrs), 105.6 µg/mL and 85.3 µg/mL and 64.4 µg/mL; in [3] (10 mg Dose, 1 hrs), 65.4 µg/mL and 44.6 µg/mL and 34.8 µg/mL. Besides, the “Chemical Dissolution (concentration in eluate)” value is 48.7 µg/mL and 36.9 µg/mL and 27.9 µg/mL in [3] (10 mg Dose, 2 hrs); 36.5 µg/mL and 32.0 µg/mL and 27.0 µg/mL in data set [3] (10 mg Dose, 3 hrs). Further, the “time for which controlled release is maintained” value in data set [3] (oral dissolution model, 0.5 ml/minute) was found to be 3 h. In [4], the microbiological activity entry is “microbiologically active”.

With Colistin Sulphate, the results for the MIC against S.Aureus and with A.Xylosoxidans were more than 32 μ μgml^−1 and 8 μ μgml^−1, respectively. Further, the microbiological activity entry in data set [4] is on record as “microbiologically active”. The “Mean Amount of Drug Released (%)” value in data set [5] (insert thickness 0.4 mm, 1 Hour) is listed as 48.8%; in data set [5] (insert thickness 0.4 mm, 3 Hours), 98.6%; in [5] (insert thickness 0.6 mm, 1 Hour), 32.4%; in data set [5] (insert thickness 0.6 mm, 3 Hours), 92.8%; in data set [5] (insert thickness 0.8 mm, 1 Hour), 26.7%; in data set [5] (insert thickness 0.8 mm, 3 Hours) it was 83.4%. In data set [5] (insert thickness 1.1 mm, 3 Hours), the “Mean Amount of Drug Released (%)” value was 57.9%.

As for Lysozyme, in [6], the total released was determined as 22.9 mg and the “total released (%)” value was 88.4%.
